According to patent publication US20250144069A1, “BILOBALIDE DERIVATIVE COMPOUNDS FOR TREATING NEUROLOGICAL DISEASES AND CANCERS” (The Chinese University of Hong Kong, priority 2023, published 2025):
Where two headings read alike, the source gives them in different places.

Legend:
Format in all cases: cell-based, human
[1] = test system: A549 cells; assay: Dose-dependent CCK8 viability assay; settings: Homo sapiens
Protocol: In this example, dose-dependent CCK8 Viability assay was performed to determine the IC50 (the concentration of compound to achieve 50% viability) of several of the hit compounds identified from Example 2. A variety of cell lines were used: • Jurkat cells: Human leukemia • A549 cells: Human NSCLC • KP-1 cells: Mouse NSCLC with KRAS and P53 mutations • MCF-7 cells: Human breast cancer
Method for Adherent Cells (A549, MCF-7 and KP-1 Cells)
5000 cells/100 uL were seeded in 96-well plates and incubate at 37° C.+5% CO2 overnight. Media were replaced with 100 uL of compound per well in 6 replicates in a series of 2-fold dilutions. The following controls were prepared.
(§1) Blank control: 100 uL 0.1% DMSO in media with no cells per well.
(§2) Positive control: 100 uL of 10 uM 5-flurouracil per well.
(§3) Negative control: 100 uL of 0.1% DMSO in media per well.
Each 96-well plate included 1 compound in 7 concentrations and a complete set of controls (in 6 replicates).
Cells were incubated at 37° C.+5% CO2 for 46 hours. 10 uL of CCK8 solution was added to each well. Cells were incubated at 37° C.+5% CO2 for 2 hours. Absorbance at 450 nm was measured using a multiplate reader.
(§4) Viability was calculated using the equation: […]

[2] = test system: A549 cells; assay: Single-dose CCK-8 cell viability screening (adherent cells); settings: for viability at 50 µM: Homo sapiens, A549, 48 h, read-out: % Viability (50 uM, 48 h) A549
Protocol: (§5) In this example, the anti-cancer properties of the BB analogues described in Table 1d were evaluated. Single-dose screening approach is used for initial testing to assess the cytotoxic effect of the BB analogues (also referred to as ‘BB compounds’) on Jurkat cells (human T cell leukaemia cells) and A549 cells (human lung cancer cells).
(§6) Method for Adherent Cells (A549 Cells)
(§7) In this example, 5000 cells/100 uL were seeded in 96-well plates and incubate at 37° C.+5% CO2 overnight. Media were replaced with 100 uL of 50 uM compound per well in 6 replicates. The following controls were prepared.
as §1, §2, §3
(§8) Each 96-well plate included 7 compounds and the complete set of controls (in 6 replicates).
(§9) Cells were incubated at 37° C.+5% CO2 for 46 hours. 10 uL of CCK8 solution was added to each well. Cells were then incubated at 37° C.+5% CO2 for 2 hours. Absorbance at 450 nm was measured using a multiplate reader.
as §4
(§10) The benchmark in Table 2 was used to define the activities of each compound.

[3] = as above; settings: average of A549 and Jurkat % viability, 50 uM, 48 h; for viability at 50 µM: Homo sapiens
Protocol: as §5, §6, §7, §1, §2, §3, §8, §9, §4, §10

[4] = test system: Jurkat cells; assay: Single-dose CCK-8 cell viability screening (suspension cells); settings: for viability at 50 µM: Homo sapiens, Jurkat, 48 h
Protocol: as §5
Method for Suspension Cells (Jurkat Cells)
5000 cells/90 uL were seeded in 96-well plates. 10 uL of 500 uM compound (10×) was added to each well in 6 replicates. The following controls were prepared.
Blank control: 10 uL 1% DMSO in media with no cells per well.
Positive control: 10 uL of 100 uM 5-flurouracil (10×) per well.
Negative control: 10 uL of 1% DMSO in media (10×) per well.
Each 96-well plate included 7 BB analogues and the complete set of controls (in 6 replicates).
as §9, §4, §10

[5] = Jurkat cells, 50 uM, CCK-8, read-out: % Viability (50 uM, 48 h) Jurkat
[6] = read-out: % Viability (50 uM, 48 h) Jurkat

Row | SMILES | viability at 50 µM ([2]; A549 cells, 50 uM, 48 h, CCK-8) [%] | viability at 50 µM ([3]; A549, 48 h) [%] | viability at 50 µM [4, 5] [%] | also measured
1 | CC(C)(C)[C@]1(O)C[C@@H]2OC(=O)C[C@@]23C(=O)O[C@@H]2N(c4ccc(Cl)c(Cl)c4)C(=O)[C@H](OC(=O)c4ccccc4)[C@]213 [P-21, (3aS,5aS,8R,8aS,9R,10aS)-9-(tert-butyl)-9-hydroxy-2,4,7-trioxo-6-(3,4-dichloro-phenyl)octahydro-4H,9H-furo [3″,2″:2′,3′]cyclopenta [1′,2′:3,4]furo [2,3-b]pyrrol-8-yl benzoate] | 56.5 | 55 | 53.5 | IC50 ([1]; A549, 48 h): 17.9 µM
2 | CC(C)(C)[C@]1(O)C[C@@H]2OC(=O)C[C@@]23C(=O)O[C@@H]2N(CC45CC6CC(CC(C6)C4)C5)C(=O)[C@H](OC(=O)c4ccccc4)[C@]213 [SCC363, (3aS,5aS,8R,8aS,9R,10aS)-6-(adamantan-1-ylmethyl)-9-(tert-butyl)-9-hydroxy-2,4,7-trioxooctahydro-4H,9H-furo[3″,2″:2′,3′]cyclopenta[1′,2′:3,4]furo[2,3-b]pyrrol-8-yl benzoate] | – | – | – | IC50 ([1]; 48 hours): 9.99 µM
3 | Cc1c(CCN2C(=O)[C@H](OC(=O)c3ccccc3)[C@@]34[C@@H]2OC(=O)[C@@]32CC(=O)O[C@H]2C[C@@]4(O)C(C)(C)C)[nH]c2ccccc12 [XBB-029, (3aS,5aS,8R,8aS,9R,10aS)-9-(tert-butyl)-9-hydroxy-6-(2-(3-methyl-1H-indol-2-yl)ethyl)-2,4,7-trioxooctahydro-4H,9H-furo [3″,2″:2′,3′]cyclopenta[1′,2′:3,4]furo[2,3-b]pyrrol-8-yl benzoate] | 96.1 | 94.8 | 93.4 | –
4 | CC(C)(C)[C@]1(O)C[C@@H]2OC(=O)C[C@@]23C(=O)O[C@@H]2N(c4ccccc4)C(=O)[C@H](OC(=O)c4ccccc4)[C@]213 [XBB-034, (3aS,5aS,8R,8aS,9R,10aS)-9-(tert-butyl)-9-hydroxy-2,4,7-trioxo-6-phenyloctahydro-4H,9H-furo[3″,2″:2′,3′]cyclopenta [1′,2′:3,4]furo[2,3-b]pyrrol-8-yl benzoate] | – | – | – | viability at 50 µM [2]: 56%; viability at 50 µM [3]: 72.5%; viability at 50 µM [4, 6]: 89.1%
5 | CC(=O)Nc1ccc(N2C(=O)[C@H](OC(=O)c3ccccc3)[C@@]34[C@@H]2OC(=O)[C@@]32CC(=O)O[C@H]2C[C@@]4(O)C(C)(C)C)cc1 [XBB-035, (3aS,5aS,8R,8aS,9R,10aS)-6-(4-acetamidophenyl)-9-(tert-butyl)-9-hydroxy-2,4,7-trioxooctahydro-4H,9H-furo [3″,2″:2′,3′]cyclopenta [1′,2′:3,4]furo[2,3-b]pyrrol-8-yl benzoate] | 66.9 | 76.9 | 87 | –
6 | CC(C)(C)OC(=O)Nc1ccc(N2C(=O)[C@H](OC(=O)c3ccccc3)[C@@]34[C@@H]2OC(=O)[C@@]32CC(=O)O[C@H]2C[C@@]4(O)C(C)(C)C)cc1 [XBB-036] | 52.4 | 70.6 | 88.8 | –
7 | CC(C)(C)[C@]1(O)C[C@@H]2OC(=O)C[C@@]23C(=O)O[C@@H]2N(c4ccc(N)cc4)C(=O)[C@H](OC(=O)c4ccccc4)[C@]213 [XBB-037′] | – | – | – | % Viability (50 uM, 48 h) A549 ([2]; A549 cells, 50 uM, 48 h, CCK-8): 110.02%; Average (%) [3]: 104.22%; % Viability (50 uM, 48 h) Jurkat ([4]; Jurkat cells, 50 uM, CCK-8, 50 µM): 98.42%
8 | CC(C)(C)[C@]1(O)C[C@@H]2OC(=O)C[C@@]23C(=O)O[C@@H]2N(c4ccc(N5CCOCC5)cc4)C(=O)[C@H](OC(=O)c4ccccc4)[C@]213 [XBB-038, (3aS,5aS,8R,8aS,9R,10aS)-9-(tert-butyl)-9-hydroxy-6-(4-morpholinophenyl)-2,4,7-trioxooctahydro-4H,9H-furo [3″,2″:2′,3′]cyclopenta [1′,2′:3,4]furo [2,3-b]pyrrol-8-yl benzoate] | 95.3 | 90.1 | 84.8 | –
9 | CC(C)(C)[C@]1(O)C[C@@H]2OC(=O)C[C@@]23C(=O)O[C@@H]2N(c4ccc5c(c4)OCO5)C(=O)[C@H](OC(=O)c4ccccc4)[C@]213 [XBB-039, (3aS,5aS,8R,8aS,9R,10aS)-6-(benzo[d][1,3]dioxol-5-yl)-9-(tert-butyl)-9-hydroxy-2,4,7-trioxooctahydro-4H,9H-furo [3″,2″:2′,3′]cyclopenta [1′,2′:3,4]furo [2,3-b]pyrrol-8-yl benzoate] | 78.4 | 74.1 | 69.7 | –
10 | CC(C)(C)[C@]1(O)C[C@@H]2OC(=O)C[C@@]23C(=O)O[C@@H]2N(c4cccnc4)C(=O)[C@H](OC(=O)c4ccccc4)[C@]213 [XBB-040, (3aS,5aS,8R,8aS,9R,10aS)-9-(tert-butyl)-9-hydroxy-2,4,7-trioxo-6-(pyridin-3-yl)octahydro-4H,9H-furo [3″,2″:2′,3′]cyclopenta [1′,2′:3,4]furo [2,3-b]pyrrol-8-yl benzoate] | – | 99 | – | viability at 50 µM [2]: 99.6%; viability at 50 µM [4, 6]: 98.4%
11 | CC(C)(C)[C@]1(O)C[C@@H]2OC(=O)C[C@@]23C(=O)O[C@@H]2N(c4ccc(N5CCOCC5)cc4)C(=O)[C@H](O)[C@]213 [XBB-042, (3aS,5aS,8R,8aS,9R,10aS)-9-(tert-butyl)-8,9-dihydroxy-6-(4-morpholinophenyl)tetrahydro-4H,9H-furo [3″,2″:2′,3′]cyclopenta [1′,2′:3,4]furo [2,3-b]pyrrole-2,4,7(3H,8H)-trione] | – | 96.7 | – | viability at 50 µM [2]: 95.6%; viability at 50 µM [4, 6]: 97.8%
12 | CC(C)(C)[C@]1(O)C[C@@H]2OC(=O)C[C@@]23C(=O)O[C@@H]2N(CC4CCN(C(=O)c5ccc6c(c5)OCCO6)CC4)C(=O)[C@H](OC(=O)c4ccccc4)[C@]213 [XBB-045, (3aS,5aS,8R,8aS,9R,10aS)-9-(tert-butyl)-6-((1-(2,3-dihydrobenzo[b][1,4]dioxine-6-carbonyl)piperidin-4-yl)methyl)-9-hydroxy-2,4,7-trioxooctahydro-4H,9H-furo [3″,2″:2′,3′]cyclopenta [1′,2′:3,4]furo[2,3-b]pyrrol-8-yl benzoate] | 87 | 85.9 | 84.8 | –
13 | CC(=O)O[C@H]1C(=O)N(CCn2cc3ccccc3c2C)[C@H]2OC(=O)[C@]34CC(=O)O[C@H]3C=C(C(C)(C)C)[C@@]214 [XBB-054] | 88.8 | 90.9 | 93 | –
14 | CC(=O)O[C@H]1C(=O)N(CC2CCN(C(=O)OC(C)(C)C)CC2)[C@H]2OC(=O)[C@]34CC(=O)O[C@H]3C=C(C(C)(C)C)[C@@]214 [XBB-060] | 108 | 106 | 104 | –
15 | CC(C)(C)[C@]1(O)C[C@@H]2OC(=O)C[C@@]23C(=O)O[C@@H]2N(c4cccc5c4OCO5)C(=O)[C@H](OC(=O)c4ccccc4)[C@]213 [XBB-068] | 93.6 | 97.5 | 101 | –
16 | CC(=O)O[C@H]1C(=O)NC(N)=N[C@H]2OC(=O)[C@]34CC(=O)O[C@H]3C=C(C(C)(C)C)[C@@]214 [XBB-073] | 66.5 | 86.5 | 107 | –
17 | C=C(C)[C@@]1(C)C[C@@H]2OC(=O)C[C@@]23C(=O)O[C@@H]2N(c4ccccc4)NC(=O)[C@H](OC(C)=O)[C@]213 [XBB-075] | 67.4 | 84 | 101 | –
